Laboratory results from publication PMC9518286, “Design, synthesis, biological evaluation and molecular docking study of 2,4-diarylimidazoles and 2,4-bis(benzyloxy)-5-arylpyrimidines as novel HSP90 N-terminal inhibitors” (Journal of Enzyme Inhibition and Medicinal Chemistry, 2022).

Assays:
HSP90α [1] = target: T1, HSP90α (Homo sapiens, UniProt P07900); test: biochemical; design: fluorescence polarisation competition with FITC-labelled geldanamycin on HSP90α N-terminal domain (BPS kit 50293); details: read-out: FP IC50
T1 construct: gene HSP90AA1; N-terminal domain
Protocol: The binding affinity for HSP90α was evaluated using a commercially available Hsp90α N-terminal domain assay kit (Catalogue: #50293, BPS Bioscience, CA, USA). According to the manufacturer’s instructions, 5x HSP90 assay buffer (5 μL), 40 mM dithiothreitol (5 μL), 2 mg/mL BSA (5 μL), and H2O (40 μL) were sequentially added to each well. After the addition of diluted FITC-labelled geldanamycin solution (100 nM, 5 μL), compounds at different concentrations (10 μM, 1.0 μM, 0.1 μM, 0.01 μM) were added. The reaction was initiated by the addition of 20 μL of Hsp90α (17 ng/μL). After 2 h of incubation with slow shaking at room temperature, the fluorescent polarisation was measured using Synergy H1 (BioTek Instruments, Inc.). The excitation and emission wavelengths were 485 nm and 530 nm, respectively. IC50 values were calculated based on the signal changes in the FP competition assay. The experiments were performed in triplicate. To further verify the binding of the synthesised compounds to the HSP90 N-terminus, the binding affinity of five typical compounds (16j, 16l, 16m, 22k, and 22l) was evaluated using an FP assay. The addition of compounds with HSP90 inhibitory capacity into the assay would compete with the fluorescence probe for binding into HSP90, resulting in a decrease in FP in comparison with the probe alone.

HSP90α [2] = target: T1, HSP90α; test: fluorescence polarisation competition with FITC-geldanamycin (BPS kit #[…]); format: binding

SMILES | IC50 (HSP90α [1]) [nM] | IC50 (HSP90α [2]) [nM]
Cc1ccc(-c2cn(Cc3ccccc3)c(-c3ccc(Cl)cc3)n2)cc1 [16j, 1-Benzyl-2–(4-chlorophenyl)-4-(p-tolyl)-1H-imidazole] | 610 ± 30 | –
Clc1ccc(-c2cn(Cc3ccccc3)c(-c3ccc(Cl)cc3)n2)cc1 [16l, 1-Benzyl-2,4-bis(4-chlorophenyl)-1H-imidazole] | 570 ± 60 | –
Clc1ccc(-c2nc(-c3cccc(Cl)c3)cn2Cc2ccccc2)cc1 [16m, 1-Benzyl-4–(3-chlorophenyl)-2–(4-chlorophenyl)-1H-imidazole] | 620 ± 110 | –

Results, then the compound that gave them:

IC50 (HSP90α [1]) [nM] | IC50 (HSP90α [2]) [nM] | SMILES
– | 210 ± 30 | Oc1ccc(-c2cnc(OCc3ccccc3)nc2OCc2ccccc2)cc1 [22k, 4–(2,4-Bis(benzyloxy)pyrimidin-5-yl)phenol]
580 ± 110 | – | Oc1cccc(-c2cnc(OCc3ccccc3)nc2OCc2ccccc2)c1 [22l, 3–(2,4-Bis(benzyloxy)pyrimidin-5-yl)phenol]
